Assay results as given in paper PMC4501119, “Cholestenoic acid, an endogenous cholesterol metabolite, is a potent γ-secretase modulator” (Molecular Neurodegeneration, 2015).

Columns and labels:
[1] = tested on: endogenous mouse Aβ (mAβ) in primary neuron-glia cultures; test: Primary mixed neuron-glia culture, endogenous mouse Aβ ELISA; format: cell-based
Method: Primary mixed neuron-glia cultures were prepared from postnatal day 0 (P0) C3HBL/6 mouse brains (Harlan Labs). Cerebral cortices were dissected from P0 mouse brains and were dissociated in 2 mg/ml papain (Worthington) and 50 μg/mL DNAse I (Sigma) at 37 °C for 20 min. They were then washed three times in sterile Hank’s balanced salt solution (HBSS) to inactivate the papain and switched to 5 % fetal bovine serume (HyClone) in Neurobasal-A growth media (Gibco), which includes 0.5 mM L-glutamine (Gibco), 0.5 mM GlutaMax (Life Technologies), 0.01 % antibiotic-antimycotic (Gibco), and 0.02 % SM1 supplement (Stemcell). The tissue mixture was then triturated three times using a 5 mL pipette followed by a Pasteur pipette, and strained through a 70 μm cell strainer. The cell mixture was then centrifuged at 200xg for 3 min, and re-suspended in fresh Neurobasal-A media. They were then plated onto poly-D-lysine coated 96well plates at 100,000 cells/well. Cells were maintained in the Neurobasal-A growth media mentioned above without fetal bovine serum (FBS) at 37 °C in a humidified 5 % CO2 chamber.
Monoclonal antibodies to Aβ were generated by the Mayo Clinic Immunology Core facilities (Jacksonville, FL, USA). Ab5 recognizes an epitope in the amino terminus of Aβ (Aβ1-16), recognizes both monomeric and aggregated Aβ, and is human specific. […] Ab 2.1.3 was raised against Aβ35-42 and is specific for Aβx-42. […] For cell-based screens, Aβ was captured from conditioned medium with either Ab5, Ab38, Ab13.1.1, or Ab2.1.3 (coated at 10-50 μg/ml in EC buffer: 5 mM NaH2PO4-H2O, 20 mM Na2HPO4, 400 mM NaCl, 2.5 mM EDTA-full name, 151.5 μM BSA, 813 μM CHAPS, and 7.7 mM NaN3) on Immulon 4HBX Flat-Bottom Microfilter 96-well plates (Thermo Scientific, Waltham, MA, USA). Total Aβ level was determined by capture with Ab5 and detected with horseradish peroxidase (HRP)-conjugated 4G8 (a monoclonal antibody against Aβ17-24; Covance, Waltham, MA, USA) with the other Aβ peptides detected with HRP-conjugated Ab5. For the cell-free assay and measuring mouse endogenous Aβ, HRP-conjugated 4G8 was used as the secondary detection antibody. Aβ standards (Bachem, King of Prussia, PA, USA) were prepared by dissolving in hexafluoroisopropanol (HFIP) at 1 mg/ml with sonication, dried under nitrogen, resuspended at 2 mg/ml HFIP, sonicated again and dried under nitrogen. The resulting Aβ was resuspended in 0.01 % ammonium hydroxide, portioned into aliquots in EC buffer, and frozen at −80 °C. Following these steps, the Aβ is monomeric, as determined by size-exclusion chromatography.

[2] = design: method as in PMID 10428977; details: in humans; cited from earlier work
[3] = tested on: primary mouse motor neuron; design: method as in PMID 25271621; details: cited from earlier work

CC(CCC[C@@H](C)C(=O)O)[C@H]1CCC2C3CC=C4C[C@@H](O)CC[C@]4(C)C3CC[C@@]21C (stereo partly drawn) [Cmpd 2a, 25(R)-cholestenoic acid]
decrease of mAβ42 production ([1]; 3 μM): ~ 60%
Aβ42:Aβ38 ratio ([1]; 3 μM and 10 μM): significant decrease
Aβ38 production ([1]; 10 μM): increased
decrease of mAβ42 production ([1]; 10 μM): ~ 75%
half-life (T1/2) [2]: 1.5 h
toxicity to primary mouse motor neuron in cultures [3]: toxic
